Values quoted from earlier work in PMC7767166, “Imidazole and Imidazolium Antibacterial Drugs Derived from Amino Acids” (Pharmaceuticals, 2020).
Marks after values point to notes of the source that are not given here.

Tests used:
MRC-5 cells = tested on: MRC-5 cells; parameters: method as in PMID 19407848; conditions: cited from earlier work
B. subtilis = tested on: B. subtilis; parameters: method as in PMID 26777771; conditions: cited from earlier work

## Alamethicin
MRC-5 cells
  IC50 (cytotoxicity against MRC-5 cells): 62.5 ^f [42] μg/mL
B. subtilis
  B. subtilis MIC: 16 µg/mL
